These results are taken from patent publication US8574563B2 (Bristol-Myers Squibb Company, priority 2006, dated 2013).

For the assay, the system named is HCV 1b-377-neo replicon cells. Briefly: HCV replicon assay, HCV 1b-377-neo replicon cells (1b FRET). Particulars: Hepatitis C virus, HCV 1b-377-neo replicon cells; HCV 1b genotype; read-out: EC50 range against HCV 1b (Table 2, Range). It counts as cell-based, Hepatitis C virus genotype 1b. The essentials:
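Compounds were tested in genotype 1b subgenomic replicon cells carrying a neomycin marker, alongside a matched replicon line with an NS5A Y2065H substitution that confers resistance to a reference NS5A inhibitor.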
On the technique in general: In antiviral work, replicon cells carry a viral genome segment that copies itself.

The EC50 is the concentration giving half of the maximal effect. As for `CC(C)[C@@H](C(=O)N1CCC[C@H]1c1ncc(-c2ccc(-c3ccc(-c4cnc([C@@H]5CCCN5C(=O)[C@H](C(C)C)N5CCCNC5=O)[nH]4)cc3)cc2)[nH]1)N1CCCNC1=O` [OL-5, 1,1′-(4,4′-biphenyldiylbis(1H-imidazole-4,2-diyl(2S)-2,1-pyrrolidinediyl((2S)-3-methyl-1-oxo-1,2-butanediyl)))ditetrahydro-2(1H)-pyrimidinone], the EC50 was in the range of 0.001 to 0.999 nM. Next, `COC(=O)N[C@@H](CC(C)C)C(=O)N1CCC[C@H]1c1ncc(-c2ccc(-c3ccc(-c4cnc([C@@H]5CCCN5C(=O)[C@H](CC(C)C)NC(=O)OC)[nH]4)cc3)cc2)[nH]1` [OL-6, methyl ((1S)-1-(((2S)-2-(4-(4′-(2-((2S)-1-((2S)-2-((methoxycarbonyl)amino)-4-methylpentanoyl)-2-pyrrolidinyl)-1H-imidazol-4-yl)-4-biphenylyl)-1H-imidazol-2-yl)-1-pyrrolidinyl)carbonyl)-3-methylbutyl)carbamate]: 0.001 to 0.999 nM; `COC(=O)N[C@H](C(=O)N1CC(F)(F)C[C@H]1c1ncc(-c2ccc(-c3ccc(-c4cnc([C@@H]5CC(F)(F)CN5C(=O)[C@@H](NC(=O)OC)C(C)C)[nH]4)cc3)cc2)[nH]1)C(C)C` [OL-7, methyl ((1S)-1-(((2S)-2-(4-(4′-(2-((2S)-4,4-difluoro-1-((2S)-2-((methoxycarbonyl)amino)-3-methylbutanoyl)-2-pyrrolidinyl)-1H-imidazol-4-yl)-4-biphenylyl)-1H-imidazol-2-yl)-4,4-difluoro-1-pyrrolidinyl)carbonyl)-2-methylpropyl)carbamate]: 0.001 to 0.999 nM.

On to `CN(C)[C@@H](C(=O)N1CC(F)(F)C[C@H]1c1ncc(-c2ccc(-c3ccc(-c4cnc([C@@H]5CC(F)(F)CN5C(=O)[C@@H](c5ccccc5)N(C)C)[nH]4)cc3)cc2)[nH]1)c1ccccc1` [OL-8, (1R,1′R)-2,2′-(4,4′-biphenyldiylbis(1H-imidazole-4,2-diyl((2S)-4,4-difluoro-2,1-pyrrolidinediyl)))bis(N,N-dimethyl-2-oxo-1-phenylethanamine)], for which the EC50 lay within 0.001 to 0.999 nM. To `CCN(CC)[C@@H](C(=O)N1CC(F)(F)C[C@H]1c1ncc(-c2ccc(-c3ccc(-c4cnc([C@@H]5CC(F)(F)CN5C(=O)[C@@H](c5ccccc5)N(CC)CC)[nH]4)cc3)cc2)[nH]1)c1ccccc1` [OL-9, (1R,1′R)-2,2′-(4,4′-biphenyldiylbis(1H-imidazole-4,2-diyl((2S)-4,4-difluoro-2,1-pyrrolidinediyl)))bis(N,N-diethyl-2-oxo-1-phenylethanamine)] belongs 0.001 to 0.999 nM; to `COC(=O)N[C@H](C(=O)N1CC(F)(F)C[C@H]1c1ncc(-c2ccc(-c3ccc(-c4cnc([C@@H]5CC(F)(F)CN5C(=O)[C@@H](NC(=O)OC)[C@@H](C)OC)[nH]4)cc3)cc2)[nH]1)[C@@H](C)OC` [OL-10, methyl ((1S,2R)-1-(((2S)-2-(4-(4′-(2-((2S)-4,4-difluoro-1-(N-(methoxycarbonyl)-O-methyl-L-threonyl)-2-pyrrolidinyl)-1H-imidazol-4-yl)-4-biphenylyl)-1H-imidazol-2-yl)-4,4-difluoro-1-pyrrolidinyl)carbonyl)-2-methoxypropyl)carbamate], 0.001 to 0.999 nM. Next, `COC(=O)N[C@@H](C)C(=O)N1CC(F)(F)C[C@H]1c1ncc(-c2ccc(-c3ccc(-c4cnc([C@@H]5CC(F)(F)CN5C(=O)[C@H](C)NC(=O)OC)[nH]4)cc3)cc2)[nH]1` [OL-11, methyl ((1S)-2-((2S)-2-(4-(4′-(2-((2S)-4,4-difluoro-1-(N-(methoxycarbonyl)-L-alanyl)-2-pyrrolidinyl)-1H-imidazol-4-yl)-4-biphenylyl)-1H-imidazol-2-yl)-4,4-difluoro-1-pyrrolidinyl)-1-methyl-2-oxoethyl)carbamate]: 0.001 to 0.999 nM; `COC(=O)N[C@H](C(=O)N1CCC[C@H]1c1ncc(-c2ccc(-c3ccc(-c4cnc([C@@H]5CC(F)(F)CN5C(=O)[C@@H](NC(=O)OC)C(C)C)[nH]4)cc3)cc2)[nH]1)C(C)C` [OL-12, methyl ((1S)-1-(((2S)-2-(4-(4′-(2-((2S)-4,4-difluoro-1-((2S)-2-((methoxycarbonyl)amino)-3-methylbutanoyl)-2-pyrrolidinyl)-1H-imidazol-4-yl)-4-biphenylyl)-1H-imidazol-2-yl)-1-pyrrolidinyl)carbonyl)-2-methylpropyl)carbamate]: 0.001 to 0.999 nM; `COC(=O)N[C@H](C(=O)N1CC[C@H](O)[C@H]1c1nc(-c2ccc(-c3ccc(-c4c[nH]c([C@@H]5CCCN5C(=O)[C@@H](NC(=O)OC)C(C)C)n4)cc3)cc2)c[nH]1)C(C)C` [OL-19, methyl ((1S)-1-(((2R,3S)-3-hydroxy-2-(4-(4′-(2-((2S)-1-((2S)-2-((methoxycarbonyl)amino)-3-methylbutanoyl)-2-pyrrolidinyl)-1H-imidazol-4-yl)-4-biphenylyl)-1H-imidazol-2-yl)-1-pyrrolidinyl)carbonyl)-2-methylpropyl)carbamate]: 0.001 to 0.999 nM.

Take `COC(=O)N[C@@H](C)C(=O)N1CC[C@H](O)[C@H]1c1ncc(-c2ccc(-c3ccc(-c4cnc([C@@H]5CCCN5C(=O)[C@H](C)NC(=O)OC)[nH]4)cc3)cc2)[nH]1` [OL-20, methyl ((1S)-2-((2S)-2-(4-(4′-(2-((2R,3S)-3-hydroxy-1-(N-(methoxycarbonyl)-L-alanyl)-2-pyrrolidinyl)-1H-imidazol-4-yl)-4-biphenylyl)-1H-imidazol-2-yl)-1-pyrrolidinyl)-1-methyl-2-oxoethyl)carbamate]: the EC50 lay in the range of 1 to 99 nM. `COC(=O)N[C@H](C(=O)N1CC[C@@H](O)[C@H]1c1ncc(-c2ccc(-c3ccc(-c4cnc([C@@H]5CCCN5C(=O)[C@@H](NC(=O)OC)C(C)C)[nH]4)cc3)cc2)[nH]1)C(C)C` [OL-21, methyl ((1S)-1-(((2R)-3-hydroxy-2-(4-(4′-(2-((2S)-1-((2S)-2-((methoxycarbonyl)amino)-3-methylbutanoyl)-2-pyrrolidinyl)-1H-imidazol-4-yl)-4-biphenylyl)-1H-imidazol-2-yl)-1-pyrrolidinyl)carbonyl)-2-methylpropyl)carbamate]: the EC50 is 0.001 to 0.999 nM.

Regarding `COC(=O)N[C@H](C(=O)N1CCC[C@H]1c1ncc(-c2ccc(-c3ccc(-c4cnc([C@@H]5CCCN5C(=O)[C@@H](Nc5ncccn5)C(C)C)[nH]4)cc3)cc2)[nH]1)C(C)C` [cj-11, methyl ((1S)-2-methyl-1-(((2S)-2-(5-(4′-(2-((2S)-1-(N-2-pyrimidinyl-L-valyl)-2-pyrrolidinyl)-1H-imidazol-5-yl)-4-biphenylyl)-1H-imidazol-2-yl)-1-pyrrolidinyl)carbonyl)propyl)carbamate], the EC50 fell in the range of 0.001 to 0.999 nM. To `COC(=O)N[C@@H](C)C(=O)N1CCC[C@H]1c1ncc(-c2ccc(-c3ccc(-c4cnc([C@@H]5CCCN5C(=O)[C@@H](Nc5ncccn5)C(C)C)[nH]4)cc3)cc2)[nH]1` [cj-11a, methyl ((1S)-1-methyl-2-oxo-2-((2S)-2-(5-(4′-(2-((2S)-1-(N-2-pyrimidinyl-L-valyl)-2-pyrrolidinyl)-1H-imidazol-5-yl)-4-biphenylyl)-1H-imidazol-2-yl)-1-pyrrolidinyl)ethyl)carbamate] belongs 0.001 to 0.999 nM.

In the case of `COC(=O)N[C@@H](C(=O)N1CCC[C@H]1c1ncc(-c2ccc(-c3ccc(-c4cnc([C@@H]5CCCN5C(=O)[C@@H](Nc5ncccn5)C(C)C)[nH]4)cc3)cc2)[nH]1)c1ccccc1` [cj-11b, methyl ((1R)-2-oxo-1-phenyl-2-((2S)-2-(5-(4′-(2-((2S)-1-(N-2-pyrimidinyl-L-valyl)-2-pyrrolidinyl)-1H-imidazol-5-yl)-4-biphenylyl)-1H-imidazol-2-yl)-1-pyrrolidinyl)ethyl)carbamate], the EC50 lay in the range of 0.001 to 0.999 nM. Next, `CCN(CC)[C@@H](C(=O)N1CCC[C@H]1c1ncc(-c2ccc(-c3ccc(-c4cnc([C@@H]5CCCN5C(=O)[C@@H](Nc5ncccn5)C(C)C)[nH]4)cc3)cc2)[nH]1)c1ccccc1` [cj-11c, N-((1S)-1-(((2S)-2-(5-(4′-(2-((2S)-1-((2R)-2-(diethylamino)-2-phenylacetyl)-2-pyrrolidinyl)-1H-imidazol-5-yl)-4-biphenylyl)-1H-imidazol-2-yl)-1-pyrrolidinyl)carbonyl)-2-methylpropyl)-2-pyrimidinamine]: 0.001 to 0.999 nM.

`COC(=O)N[C@H](C(=O)N1CCC[C@H]1c1ncc(-c2ccc(-c3ccc(-c4cnc([C@@H]5CCCN5C(=O)[C@@H](NC5=NCCN5C)C(C)C)[nH]4)cc3)cc2)[nH]1)C(C)C` [cj-11d, methyl ((1S)-2-methyl-1-(((2S)-2-(5-(4′-(2-((2S)-1-(N-(1-methyl-4,5-dihydro-1H-imidazol-2-yl)-L-valyl)-2-pyrrolidinyl)-1H-imidazol-5-yl)-4-biphenylyl)-1H-imidazol-2-yl)-1-pyrrolidinyl)carbonyl)propyl)carbamate]: the EC50 lay within 0.001 to 0.999 nM.

Take `COC(=O)N[C@H](C(=O)N1CCC[C@H]1c1ncc(-c2ccc(-c3ccc(-c4cnc([C@@H]5CCCN5C(=O)[C@@H](NC5=NCCN5)C(C)C)[nH]4)cc3)cc2)[nH]1)C(C)C` [cj-11e, methyl ((1S)-1-(((2S)-2-(5-(4′-(2-((2S)-1-(N-(4,5-dihydro-1H-imidazol-2-yl)-L-valyl)-2-pyrrolidinyl)-1H-imidazol-5-yl)-4-biphenylyl)-1H-imidazol-2-yl)-1-pyrrolidinyl)carbonyl)-2-methylpropyl)carbamate]: the EC50 was 1000 to 10000 nM. Next, `COC(=O)N[C@@H](C)C(=O)N1CCC[C@H]1c1ncc(-c2ccc(-c3ccc(-c4cnc([C@@H]5CCCN5C(=O)[C@@H](NC5=NCCN5)C(C)C)[nH]4)cc3)cc2)[nH]1` [cj-11f, methyl ((1S)-2-((2S)-2-(5-(4′-(2-((2S)-1-(N-(4,5-dihydro-1H-imidazol-2-yl)-L-valyl)-2-pyrrolidinyl)-1H-imidazol-5-yl)-4-biphenylyl)-1H-imidazol-2-yl)-1-pyrrolidinyl)-1-methyl-2-oxoethyl)carbamate]: 1 to 99 nM.
